Measurements from ChEMBL document CHEMBL1909046, “DrugMatrix in vitro pharmacology data”.

Legend:
[1] = target: Cytochrome P450 2D6 (Homo sapiens, UniProt P10635); settings: bti-tn-5b1-4; also: in other assays of this panel Not Active means under 50% inhibition at 10 µM
[2] = DRUGMATRIX: Sigma2 radioligand binding (ligand: [3H] Ifenprodil); format: cell membranes, Rattus norvegicus, Wistar, Brain, Membrane; settings: Not Active = under 50% inhibition at 10 µM
[3] = target: Mitogen-activated protein kinase 14 (Homo sapiens, UniProt Q16539); design: species or system Escherichia coli;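 also: inhibition of p38alpha enzyme activity in a biochemical kinase assay, with myelin basic protein serving as substrate; in other assays of this panel Not Active means under 50% inhibition at 10 µM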
Mitogen-activated protein kinase 14, sequence (Q16539 whole entry): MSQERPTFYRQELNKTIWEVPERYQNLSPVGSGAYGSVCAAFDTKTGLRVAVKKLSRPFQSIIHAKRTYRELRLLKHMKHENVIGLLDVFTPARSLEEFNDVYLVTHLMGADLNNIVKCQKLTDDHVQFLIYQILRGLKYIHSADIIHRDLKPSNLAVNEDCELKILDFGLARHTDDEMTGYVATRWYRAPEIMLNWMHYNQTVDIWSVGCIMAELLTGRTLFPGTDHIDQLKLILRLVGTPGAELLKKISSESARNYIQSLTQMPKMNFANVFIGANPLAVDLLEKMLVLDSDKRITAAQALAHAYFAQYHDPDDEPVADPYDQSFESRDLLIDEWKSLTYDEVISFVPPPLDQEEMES

[4] = target: T1, Leukotriene C4 synthase (Cavia porcellus, UniProt A6XA80); format: tissue-based, Lung;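 also: enzyme inhibition assay of leukotriene C4 synthase, using LTA4 as the substrate; in other assays of this panel Not Active means under 50% inhibition at 10 µM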
T1 sequence (A6XA80 whole entry): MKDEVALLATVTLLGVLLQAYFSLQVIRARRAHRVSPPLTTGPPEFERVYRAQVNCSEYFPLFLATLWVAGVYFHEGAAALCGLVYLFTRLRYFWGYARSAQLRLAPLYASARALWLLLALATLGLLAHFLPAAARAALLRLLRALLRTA

[5] = DRUGMATRIX: Phosphodiesterase PDE3 enzyme inhibition (substrate: [3H]cAMP + cAMP); format: tissue-based, Homo sapiens; settings: platelet; Not Active = under 50% inhibition at 10 µM
[6] = DRUGMATRIX: Glutamate, NMDA, Agonism radioligand binding (ligand: [3H] CGP-39653); format: cell membranes, Rattus norvegicus, Wistar, Cerebral cortex, Membrane; settings: Not Active = under 50% inhibition at 10 µM
[7] = target: T2, Neutrophil elastase (Homo sapiens, UniProt P08246); format: tissue-based;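 also: inhibition of neutrophil elastase enzyme activity, measured with a p-nitroanilide-linked peptide substrate; in other assays of this panel Not Active means under 50% inhibition at 10 µM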
T2 sequence (P08246 whole entry): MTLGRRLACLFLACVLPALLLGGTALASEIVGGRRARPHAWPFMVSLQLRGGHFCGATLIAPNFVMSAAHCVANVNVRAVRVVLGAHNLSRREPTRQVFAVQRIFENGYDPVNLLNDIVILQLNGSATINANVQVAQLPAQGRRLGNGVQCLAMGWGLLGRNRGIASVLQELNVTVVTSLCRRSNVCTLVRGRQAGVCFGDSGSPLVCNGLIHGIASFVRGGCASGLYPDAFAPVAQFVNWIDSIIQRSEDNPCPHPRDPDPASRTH

Cytochrome P450 2D6, sequence (P10635 whole entry): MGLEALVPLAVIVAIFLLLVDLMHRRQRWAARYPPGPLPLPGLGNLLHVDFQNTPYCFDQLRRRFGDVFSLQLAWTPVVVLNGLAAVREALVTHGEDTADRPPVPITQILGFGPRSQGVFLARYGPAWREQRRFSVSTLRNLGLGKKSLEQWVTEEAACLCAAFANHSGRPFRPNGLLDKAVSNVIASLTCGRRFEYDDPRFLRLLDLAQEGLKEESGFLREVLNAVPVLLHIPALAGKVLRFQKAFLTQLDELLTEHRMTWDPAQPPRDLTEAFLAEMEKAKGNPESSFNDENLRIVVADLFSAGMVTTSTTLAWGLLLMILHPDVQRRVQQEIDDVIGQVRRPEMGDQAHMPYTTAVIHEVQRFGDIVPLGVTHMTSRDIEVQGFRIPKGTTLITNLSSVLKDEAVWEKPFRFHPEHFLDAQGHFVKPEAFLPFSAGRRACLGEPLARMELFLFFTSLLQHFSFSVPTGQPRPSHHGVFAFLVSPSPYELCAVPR

SMILES: CCCNC(C)C(=O)Nc1ccccc1C (configuration not stated) [PRILOCAINE]
- IC50 [1]: Not Active
- Ki [1]: Not Active
- IC50 [2]: Not Active
- Ki [2]: Not Active
- IC50 [3]: Not Active
- IC50 [4]: Not Active
- IC50 [5]: Not Active
- Ki [5]: Not Active
- IC50 [6]: Not Active
- Ki [6]: Not Active
- IC50 [7]: Not Active

SMILES: NS(=O)(=O)c1cc(C2(O)NC(=O)c3ccccc32)ccc1Cl (configuration not stated) [CHLORTHALIDONE]
- IC50 [1]: Not Active
- Ki [1]: Not Active
- IC50 [2]: Not Active
- Ki [2]: Not Active
- IC50 [3]: Not Active
- IC50 [4]: Not Active
- IC50 [5]: Not Active
- Ki [5]: Not Active
- IC50 [6]: Not Active
- Ki [6]: Not Active
- IC50 [7]: Not Active

SMILES: CCN(CC)CCCC(C)Nc1c2ccc(Cl)cc2nc2ccc(OC)cc12 (configuration not stated) [QUINACRINE]
- IC50 [1]: Not Active
- Ki [1]: Not Active
- IC50 [2]: Not Active
- Ki [2]: Not Active
- IC50 [3]: Not Active
- IC50 [4]: Not Active
- IC50 [5]: Not Active
- Ki [5]: Not Active
- IC50 [6]: Not Active
- Ki [6]: Not Active
- IC50 [7]: Not Active

SMILES: CN1CCC(=C2c3ccccc3CC(=O)c3sccc32)CC1 [KETOTIFEN]
- IC50 [1]: Not Active
- Ki [1]: Not Active
- IC50 [2]: Not Active
- Ki [2]: Not Active
- IC50 [3]: Not Active
- IC50 [4]: Not Active
- IC50 [5]: Not Active
- Ki [5]: Not Active
- IC50 [6]: Not Active
- Ki [6]: Not Active
- IC50 [7]: Not Active

SMILES: Cc1c(O)cccc1C(=O)N[C@@H](CSc1ccccc1)[C@H](O)CN1C[C@H]2CCCC[C@H]2C[C@H]1C(=O)NC(C)(C)C
- IC50 [1]: Not Active
- Ki [1]: Not Active
- IC50 [2]: Not Active
- Ki [2]: Not Active
- IC50 ([3]; read-out: IC50): 18200 nM
- IC50 [4]: Not Active
- IC50 [5]: Not Active
- Ki [5]: Not Active
- IC50 [6]: Not Active
- Ki [6]: Not Active
- IC50 [7]: Not Active

SMILES: Cn1c(=O)c2c(ncn2C)n(C)c1=O [CAFFEINE]
- IC50 [1]: Not Active
- Ki [1]: Not Active
- IC50 [2]: Not Active
- Ki [2]: Not Active
- IC50 [3]: Not Active
- IC50 [4]: Not Active
- IC50 [5]: Not Active
- Ki [5]: Not Active
- IC50 [6]: Not Active
- Ki [6]: Not Active
- IC50 [7]: Not Active

SMILES: CC(C)NCC(O)c1ccccc1Cl (configuration not stated) [CLORPRENALINE]
- IC50 [1]: Not Active
- Ki [1]: Not Active
- IC50 [2]: Not Active
- Ki [2]: Not Active
- IC50 [3]: Not Active
- IC50 [4]: Not Active
- IC50 [5]: Not Active
- Ki [5]: Not Active
- IC50 [6]: Not Active
- Ki [6]: Not Active
- IC50 [7]: Not Active

SMILES: NC(=O)c1cccnc1 [NIACINAMIDE]
- IC50 [1]: Not Active
- Ki [1]: Not Active
- IC50 [2]: Not Active
- Ki [2]: Not Active
- IC50 [3]: Not Active
- IC50 [4]: Not Active
- IC50 [5]: Not Active
- Ki [5]: Not Active
- IC50 [6]: Not Active
- Ki [6]: Not Active
- IC50 [7]: Not Active

SMILES: C[C@]12C=CC(=O)C=C1CC[C@H]1[C@@H]3C[C@@H](O)[C@](O)(C(=O)CO)[C@@]3(C)C[C@H](O)[C@@]12F [TRIAMCINOLONE]
- IC50 [1]: Not Active
- Ki [1]: Not Active
- IC50 [2]: Not Active
- Ki [2]: Not Active
- IC50 [3]: Not Active
- IC50 [4]: Not Active
- IC50 [5]: Not Active
- Ki [5]: Not Active
- IC50 [6]: Not Active
- Ki [6]: Not Active
- IC50 [7]: Not Active

SMILES: CC(=O)OCC(=O)[C@@]12OC(C)(C)O[C@@H]1C[C@H]1[C@@H]3C[C@H](F)C4=CC(=O)C=C[C@]4(C)[C@@]3(F)[C@@H](O)C[C@@]12C [FLUOCINONIDE]
- IC50 [2]: Not Active
- Ki [2]: Not Active
- IC50 [3]: Not Active
- IC50 [4]: Not Active
- IC50 [5]: Not Active
- Ki [5]: Not Active
- IC50 [6]: Not Active
- Ki [6]: Not Active
- IC50 [7]: Not Active

SMILES: CN1CCCC(CN2c3ccccc3Sc3ccccc32)C1 (configuration not stated) [MEPAZINE]
- IC50 [1]: Not Active
- Ki [1]: Not Active
- IC50 ([2]; read-out: IC50): 631 nM
- Ki ([2]; read-out: Ki): 388 nM
- IC50 [3]: Not Active
- IC50 [4]: Not Active
- IC50 [5]: Not Active
- Ki [5]: Not Active
- IC50 [7]: Not Active

SMILES: CC[C@]1(O)C[C@@H]2CN(CCc3c([nH]c4ccccc34)[C@@](C(=O)OC)(c3cc4c(cc3OC)N(C)[C@H]3[C@@](O)(C(N)=O)[C@H](O)[C@]5(CC)C=CCN6CC[C@]43[C@@H]65)C2)C1 [VINDESINE]
- IC50 [2]: Not Active
- Ki [2]: Not Active
- IC50 [3]: Not Active
- IC50 [4]: Not Active
- IC50 [5]: Not Active
- Ki [5]: Not Active
- IC50 [6]: Not Active
- Ki [6]: Not Active
- IC50 [7]: Not Active

SMILES: CC(C)(C(=O)O)c1ccc(C(O)CCCN2CCC(C(O)(c3ccccc3)c3ccccc3)CC2)cc1 (configuration not stated) [FEXOFENADINE]
- IC50 [2]: Not Active
- Ki [2]: Not Active
- IC50 [3]: Not Active
- IC50 [4]: Not Active
- IC50 [5]: Not Active
- Ki [5]: Not Active
- IC50 [6]: Not Active
- Ki [6]: Not Active
- IC50 [7]: Not Active

SMILES: NNCCc1ccccc1 [PHENELZINE]
- IC50 [2]: Not Active
- Ki [2]: Not Active
- IC50 [3]: Not Active
- IC50 [4]: Not Active
- IC50 [5]: Not Active
- Ki [5]: Not Active
- IC50 [6]: Not Active
- Ki [6]: Not Active
- IC50 [7]: Not Active

SMILES: CC[C@H]1[C@@H]2C[C@H]3[C@@H]4N(C)c5ccccc5[C@]45C[C@@H]([C@@H]2[C@H]5O)N3[C@@H]1O [AJMALINE]
- IC50 [2]: Not Active
- Ki [2]: Not Active
- IC50 [3]: Not Active
- IC50 [4]: Not Active
- IC50 [5]: Not Active
- Ki [5]: Not Active
- IC50 [6]: Not Active
- Ki [6]: Not Active
- IC50 [7]: Not Active

SMILES: C[C@@H]1C/C=C/C=C/C=C/C=C/[C@H](O[C@@H]2O[C@H](C)[C@@H](O)[C@H](N)[C@@H]2O)C[C@@H]2O[C@](O)(C[C@@H](O)C[C@H]3O[C@@H]3/C=C/C(=O)O1)C[C@H](O)[C@H]2C(=O)O [NATAMYCIN]
- IC50 [2]: Not Active
- Ki [2]: Not Active
- IC50 [3]: Not Active
- IC50 [4]: Not Active
- IC50 [5]: Not Active
- Ki [5]: Not Active
- IC50 [6]: Not Active
- Ki [6]: Not Active
- IC50 [7]: Not Active

SMILES: NC12CC3CC(CC(C3)C1)C2 [AMANTADINE]
- IC50 [2]: Not Active
- Ki [2]: Not Active
- IC50 [3]: Not Active
- IC50 [4]: Not Active
- IC50 [5]: Not Active
- Ki [5]: Not Active
- IC50 [6]: Not Active
- Ki [6]: Not Active
- IC50 [7]: Not Active

SMILES: CC(C)c1c(C(=O)Nc2ccccc2)c(-c2ccccc2)c(-c2ccc(F)cc2)n1CC[C@@H](O)C[C@@H](O)CC(=O)O [ATORVASTATIN]
- IC50 [2]: Not Active
- Ki [2]: Not Active
- IC50 [3]: Not Active
- IC50 [4]: Not Active
- IC50 [5]: Not Active
- Ki [5]: Not Active
- IC50 [6]: Not Active
- Ki [6]: Not Active
- IC50 [7]: Not Active

SMILES: CCOc1nc2cccc(C(=O)O)c2n1Cc1ccc(-c2ccccc2-c2nnn[nH]2)cc1
- IC50 [2]: Not Active
- Ki [2]: Not Active
- IC50 [3]: Not Active
- IC50 [4]: Not Active
- IC50 [5]: Not Active
- Ki [5]: Not Active
- IC50 [6]: Not Active
- Ki [6]: Not Active
- IC50 [7]: Not Active

SMILES: N[C@@H](Cn1ccc(=O)c(O)c1)C(=O)O [L-MIMOSINE]
- IC50 [2]: Not Active
- Ki [2]: Not Active
- IC50 [3]: Not Active
- IC50 [4]: Not Active
- IC50 [5]: Not Active
- Ki [5]: Not Active
- IC50 [6]: Not Active
- Ki [6]: Not Active
- IC50 [7]: Not Active

SMILES: CN1CCN(C(c2ccccc2)c2ccccc2)CC1 [CYCLIZINE]
- IC50 [2]: Not Active
- Ki [2]: Not Active
- IC50 [3]: Not Active
- IC50 [4]: Not Active
- IC50 [5]: Not Active
- Ki [5]: Not Active
- IC50 [6]: Not Active
- Ki [6]: Not Active
- IC50 [7]: Not Active
